In one assay the test system is Helicobacter pyroli. Briefly: AHP: Antibacterial Activity Test Against Helicobacter pyroli (agar dilution). It counts as cell-based, HP NCTC 11637. The note with it: Helicobacter, NCTC11637, 168 h; HP NCTC 11637, agar dilution, 7 days; read-out: AHP minimum inhibitory concentration (MIC). As to the method:
AHP: Antibacterial Activity Test Against Helicobacter pyroli i) Meaning The minimum inhibitory concentration (MIC) against Helicobacter pyroli (microaerophilic gram-negative bacterium which is supposed to deeply involve in pathogenesis, relapse, and recrudescence of ulcer, referred to as "HP" in the following) is measured so as to find out compounds which have antimicrobial activity against Helicobacter pyroli. ii) Method MICs were determined by the agar dilution method. The stock culture (-80° C.) of HP NCTC 11637 was thawed and cultured on tripticase soy agar supplemented with 5% sheep blood at 37° C. in an atmosphere of 5% O2, 10% CO2, and 85% N2. Grown colonies were transferred to the same plate and precultured for 3 days under the same condition. […] 10 μl of the bacterial suspension for inoculation (about 10^3 cfu) was inoculated on this plate and cultured for 7 days under the same condition as that of preculture. […] As the result of the comparison of these plates, when the number of the colony on the plate containing the sample compound was less than 90% with respect to that on the control plate, it was represented by "+". Contrary to this, when there was 90% or more, it was represented by "-".

Another assay has as its system stress ulcer. Put plainly: WIS: Restraint and Water Immersion Stress-Induced Ulcer Inhibition Test. It counts as in vivo, rat (male Crj:SD or Slc:SD). The note with it: 100 mg/kg oral, rats, 7 hours restraint and water immersion (21° C.). As to the method:
WIS: Restraint and Water Immersion Stress-Induced Ulcer Inhibition Test
The degree of inhibition of the stress ulcer formation is tested.
Male Crj:SD or Slc:SD rats (6 to 7-week-old) were fasted overnight, but allowed free access to water. Each group has 5 to 8 of these rats. […] To a control group, the vehicle was administered. 10 minutes later, the rats were placed in a stress cage and immersed to the level of xipfoid process in a water bath (21° C.) for 7 hours. At the end of the stress, the rats were sacrificed by inhalation of ether or carbon dioxide. Then, the stomach of each was removed, inflated by injecting 10 ml of 5% formalin neutral buffer solution, and immersed in 1% formalin neutral buffer solution for 30 minutes or more to be fixed. The stomach was incised along the greater curvature and then the length of each erosion in the glandular portion was determined under dissecting microscope. The sum of the length of erosions per stomach was defined as ulcer index (UI).
The effect obtained when 100 mg/kg of the sample compound had been administered was expressed as ulcer formation inhibitory rate (%) as follows:
ulcer formation inhibitory rate (%)=(1-(UI in sample group/UI in control group))×100

`CC(C)=CCC/C(C)=C/COc1ccc(C(=O)N2CCN(CCNC(=O)c3ccc4c(c3)OCO4)CC2)cc1` [Example 1, 1-(4-geranyloxy)benzoyl-4-[2-(piperonyloylamino)ethyl]piperazine]: the MIC in the assay on Helicobacter pyroli was less than 3.13 µg/mL. For the same molecule, in the assay on stress ulcer, the “WIS ulcer formation inhibitory rate” value was 81%.

These data come from patent US5962456A, “N-acylpiperazine derivative, anti-ulcer drug, and antibacterial drug” (Shiseido Co., Ltd., priority 1996, dated 1999).
